# Measurements published in patent publication US10822337B2, “TGF-β inhibitorC” (Rigel Pharmaceuticals, Inc., priority 2015, dated 2020).
# Legend:
# [1] = tested on: TGF-β signaling (TGF-β pSMAD, MPC-11); test: AlphaScreen SureFire SMAD3 (p-Ser423/425) assay, inhibition of TGF-β signaling; assay type: cell-based; conditions: Mus musculus, p-SMAD-3 (Ser423/425) in cell lysate after TGF-β stimulation
# How it was run: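 Cells in collagen-coated plates were pretreated about 10 minutes with three-fold DMSO serial dilutions of compound, then stimulated with TGF-β. They were lysed with about 25 μL 1× Lysis Buffer. Lysates in 384-well plates were incubated protected from light with Acceptor bead mix for 2 hours and Donor bead mix for 1½ hours. p-SMAD-3 (Ser423/425) was read on Synergy-4 or Enspire using AlphaScreen pSMAD3 settings.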
# [2] = tested on: GDF8 signaling (GDF pSMAD, MPC11); test: AlphaScreen SureFire SMAD3 (p-Ser423/425) assay, inhibition of GDF8 signaling; assay type: cell-based; conditions: Mus musculus, MPC-11, p-SMAD-3 (Ser423/425) in cell lysate after GDF8 stimulation
IC50 [1],IC50 [2],Compound
4020 nM,776 nM,"c1cc2c(cc1-c1nn3c(c1-c1ccc4[nH]ncc4c1)CCC3)OCO2 [Compound 90, 5-(2-(Benzo[d][1,3]dioxol-5-yl)-5,6-dihydro-4H-pyrrolo[1,2-b]pyrazol-3-yl)-1H-indazole]"
840 nM,262 nM,"Fc1ccc(-c2nn3c(c2-c2ccc4[nH]ncc4c2)CCC3)c(F)c1 [Compound 91, 5-(2-(2,4-Difluorophenyl)-5,6-dihydro-4H-pyrrolo[1,2-b]pyrazol-3-yl)-1H-indazole]"
1100 nM,228 nM,"Fc1ccc(-c2nn3c(c2-c2ccc4cn[nH]c4c2)CCC3)c(F)c1 [Compound 92, 6-(2-(2,4-Difluorophenyl)-5,6-dihydro-4H-pyrrolo[1,2-b]pyrazol-3-yl)-1H-indazole]"
319 nM,77.2 nM,"Cn1cnc2ccc(-c3c(-c4ccc(F)cc4F)nn4c3CCC4)cc21 [Compound 93, 6-(2-(2,4-Difluorophenyl)-5,6-dihydro-4H-pyrrolo[1,2-b]pyrazol-3-yl)-1-methyl-1H-benzo[d]imidazole]"
482 nM,77 nM,"Fc1ccc(-c2nn3c(c2-c2ccc4nccn4c2)CCC3)c(F)c1 [Compound 94, 6-(2-(2,4-Difluorophenyl)-5,6-dihydro-4H-pyrrolo[1,2-b]pyrazol-3-yl)imidazo[1,2-a]pyridine]"
3740 nM,559 nM,"Fc1ccc(-c2nn3c(c2-c2ccc4ncccc4c2)CCC3)c(F)c1 [Compound 95, 6-(2-(2,4-Difluorophenyl)-5,6-dihydro-4H-pyrrolo[1,2-b]pyrazol-3-yl)quinoline]"
668 nM,156 nM,"Fc1ccc(-c2nn3c(c2-c2ccc4nccnc4c2)CCC3)c(F)c1 [Compound 96, 6-(2-(2,4-Difluorophenyl)-5,6-dihydro-4H-pyrrolo[1,2-b]pyrazol-3-yl)quinoxaline]"
116 nM,26.2 nM,"Fc1ccc(-c2nn3c(c2-c2ccc4ncsc4c2)CCC3)c(F)c1 [Compound 97, 6-(2-(2,4-Difluorophenyl)-5,6-dihydro-4H-pyrrolo[1,2-b]pyrazol-3-yl)benzo[d]thiazole]"
984 nM,295 nM,"COc1ccc(-c2nn3c(c2-c2ccc4[nH]ncc4c2)CCC3)cc1 [Compound 98, 5-(2-(4-Methoxyphenyl)-5,6-dihydro-4H-pyrrolo[1,2-b]pyrazol-3-yl)-1H-indazole]"
1650 nM,322 nM,"COc1ccc(-c2nn3c(c2-c2ccc4cn[nH]c4c2)CCC3)cc1 [Compound 99, 6-(2-(4-Methoxyphenyl)-5,6-dihydro-4H-pyrrolo[1,2-b]pyrazol-3-yl)-1H-indazole]"
3740 nM,699 nM,"COc1ccc(-c2nn3c(c2-c2ccc4ncsc4c2)CCC3)cc1 [Compound 100, 6-(2-(4-Methoxyphenyl)-5,6-dihydro-4H-pyrrolo[1,2-b]pyrazol-3-yl)benzo[d]thiazole]"
4180 nM,685 nM,"COc1ccc(-c2nn3c(c2-c2ccc4nccnc4c2)CCC3)cc1 [Compound 102, 6-(2-(4-Methoxyphenyl)-5,6-dihydro-4H-pyrrolo[1,2-b]pyrazol-3-yl)quinoxaline]"
520 nM,131 nM,"Fc1ccc(-c2nn3c(c2-c2ccc4ncnn4c2)CCC3)cc1 [Compound 103, 6-(2-(4-Fluorophenyl)-5,6-dihydro-4H-pyrrolo[1,2-b]pyrazol-3-yl)-[1,2,4]triazolo[1,5-a]pyridine]"
83 nM,26.6 nM,"Cc1cccc(-c2nn3c(c2-c2ccc4ncnn4c2)CCC3)c1 [Compound 104, 6-(2-(m-Tolyl)-5,6-dihydro-4H-pyrrolo[1,2-b]pyrazol-3-yl)-[1,2,4]triazolo[1,5-a]pyridine]"
112 nM,34 nM,"Cc1cc(-c2nn3c(c2-c2ccc4ncnn4c2)CCC3)ccc1F [Compound 105, 6-(2-(4-Fluoro-3-methylphenyl)-5,6-dihydro-4H-pyrrolo[1,2-b]pyrazol-3-yl)-[1,2,4]triazolo[1,5-a]pyridine]"
600 nM,159 nM,"COc1cccc(-c2nn3c(c2-c2ccc4ncnn4c2)CCC3)c1 [Compound 106, 6-(2-(3-Methoxyphenyl)-5,6-dihydro-4H-pyrrolo[1,2-b]pyrazol-3-yl)-[1,2,4]triazolo[1,5-a]pyridine]"
152 nM,34.7 nM,"Clc1cccc(-c2nn3c(c2-c2ccc4ncnn4c2)CCC3)c1 [Compound 107, 6-(2-(3-Chlorophenyl)-5,6-dihydro-4H-pyrrolo[1,2-b]pyrazol-3-yl)-[1,2,4]triazolo[1,5-a]pyridine]"
159 nM,39.8 nM,"FC(F)(F)c1cccc(-c2nn3c(c2-c2ccc4ncnn4c2)CCC3)c1 [Compound 108, 6-(2-(3-Trifluoromethylphenyl)-5,6-dihydro-4H-pyrrolo[1,2-b]pyrazol-3-yl)-[1,2,4]triazolo[1,5-a]pyridine]"

IC50 [1],IC50 [2],Compound
927 nM,132 nM,"Fc1cccc(-c2nn3c(c2-c2ccc4ncnn4c2)CCC3)c1 [Compound 109, 6-(2-(3-Fluorophenyl)-5,6-dihydro-4H-pyrrolo[1,2-b]pyrazol-3-yl)-[1,2,4]triazolo[1,5-a]pyridine]"
584 nM,126 nM,"Fc1ccc(-c2nn3c(c2-c2ccc4ncnn4c2)CCC3)cc1F [Compound 110, 6-(2-(3,4-Difluorophenyl)-5,6-dihydro-4H-pyrrolo[1,2-b]pyrazol-3-yl)-[1,2,4]triazolo[1,5-a]pyridine]"
231 nM,61.3 nM,"Fc1ccc(-c2nn3c(c2-c2ccc4ncnn4c2)CCC3)c(F)c1 [Compound 111, 6-(2-(2,4-Difluorophenyl)-5,6-dihydro-4H-pyrrolo[1,2-b]pyrazol-3-yl)-[1,2,4]triazolo[1,5-a]pyridine]"
816 nM,137 nM,"Fc1cc(F)c(-c2nn3c(c2-c2ccc4[nH]ncc4c2)CCC3)cc1F [Compound 112, 5-(2-(2,4,5-Trifluorophenyl)-5,6-dihydro-4H-pyrrolo[1,2-b]pyrazol-3-yl)-1H-indazole]"
1470 nM,226 nM,"Fc1cc(F)c(-c2nn3c(c2-c2ccc4cn[nH]c4c2)CCC3)cc1F [Compound 113, 6-(2-(2,4,5-Trifluorophenyl)-5,6-dihydro-4H-pyrrolo[1,2-b]pyrazol-3-yl)-1H-indazole]"
87.6 nM,24 nM,"Cn1cnc2ccc(-c3c(-c4cc(F)c(F)cc4F)nn4c3CCC4)cc21 [Compound 114, 1-Methyl-6-(2-(2,4,5-trifluorophenyl)-5,6-dihydro-4H-pyrrolo[1,2-b]pyrazol-3-yl)-1H-benzo[d]imidazole]"
373 nM,66.2 nM,"Fc1cc(F)c(-c2nn3c(c2-c2ccc4nccn4c2)CCC3)cc1F [Compound 115, 6-(2-(2,4,5-Trifluorophenyl)-5,6-dihydro-4H-pyrrolo[1,2-b]pyrazol-3-yl)imidazo[1,2-a]pyridine]"
186 nM,27.6 nM,"Fc1cc(F)c(-c2nn3c(c2-c2ccc4ncsc4c2)CCC3)cc1F [Compound 116, 6-(2-(2,4,5-Trifluorophenyl)-5,6-dihydro-4H-pyrrolo[1,2-b]pyrazol-3-yl)benzo[d]thiazole]"
1490 nM,156 nM,"Fc1cc(F)c(-c2nn3c(c2-c2ccc4ncccc4c2)CCC3)cc1F [Compound 117, 6-(2-(2,4,5-Trifluorophenyl)-5,6-dihydro-4H-pyrrolo[1,2-b]pyrazol-3-yl)quinoline]"
659 nM,98.5 nM,"Fc1cc(F)c(-c2nn3c(c2-c2ccc4nccnc4c2)CCC3)cc1F [Compound 118, 6-(2-(2,4,5-Trifluorophenyl)-5,6-dihydro-4H-pyrrolo[1,2-b]pyrazol-3-yl)quinoxaline]"
141 nM,30.9 nM,"Fc1cc(F)c(-c2nn3c(c2-c2ccc4ncnn4c2)CCC3)cc1F [Compound 119, 6-(2-(2,4,5-Trifluorophenyl)-5,6-dihydro-4H-pyrrolo[1,2-b]pyrazol-3-yl)-[1,2,4]triazolo[1,5-a]pyridine]"
5560 nM,872 nM,"Clc1ccccc1-c1nn2c(c1-c1ccc3ncsc3c1)CCC2 [Compound 120, 6-(2-(2-Chlorophenyl)-5,6-dihydro-4H-pyrrolo[1,2-b]pyrazol-3-yl)benzo[d]thiazole]"
949 nM,340 nM,"Clc1ccccc1-c1nn2c(c1-c1ccc3ncnn3c1)CCC2 [Compound 121, 6-(2-(2-Chlorophenyl)-5,6-dihydro-4H-pyrrolo[1,2-b]pyrazol-3-yl)-[1,2,4]triazolo[1,5-a]pyridine]"
77.4 nM,67.5 nM,"FC(F)(F)Oc1cccc(-c2nn3c(c2-c2ccc4[nH]ncc4c2)CCC3)c1 [Compound 122, 5-(2-(3-Trifluoromethoxyphenyl)-5,6-dihydro-4H-pyrrolo[1,2-b]pyrazol-3-yl)-1H-indazole]"
190 nM,85.3 nM,"FC(F)(F)Oc1cccc(-c2nn3c(c2-c2ccc4cn[nH]c4c2)CCC3)c1 [Compound 123, 6-(2-(3-Trifluoromethoxyphenyl)-5,6-dihydro-4H-pyrrolo[1,2-b]pyrazol-3-yl)-1H-indazole]"
45.9 nM,53.7 nM,"FC(F)(F)Oc1cccc(-c2nn3c(c2-c2ccc4nccn4c2)CCC3)c1 [Compound 124, 6-(2-(3-Trifluoromethoxyphenyl)-5,6-dihydro-4H-pyrrolo[1,2-b]pyrazol-3-yl)imidazo[1,2-a]pyridine]"
124 nM,160 nM,"FC(F)(F)Oc1cccc(-c2nn3c(c2-c2ccc4ncsc4c2)CCC3)c1 [Compound 125, 6-(2-(3-Trifluoromethoxyphenyl)-5,6-dihydro-4H-pyrrolo[1,2-b]pyrazol-3-yl)benzo[d]thiazole]"
